This is an account of results in US8778946B2, “3-substituted-6-(pyridinylmethoxy)-pyrrolopyridine compounds” (Eli Lilly and Company, priority 2010, dated 2014).

Each structure is given as a SMILES string. “And” between values parts separate entries of the source, which are not always exact repeats. Equal entries are not always repeated. Marks after values point to notes of the source that are not given here.

Series [1] deals with C57/black 6J male mice. The experiment in a line: Reversal of reserpine-induced akinesia. The format is in vivo. The method, then: (§1) Anti-Parkinson effects of compounds of the invention can be determined using procedures well known in the art such as animal models of locomotor activity. For example, compounds of the invention show effects on basal (habituated) locomotor activity and on reserpine-induced akinesia in C57/black 6J male mice.
Reserpine is a catecholamine depleting agent (depletes dopamine and noradrenaline) and 18-24 hours after treatment mice become akinetic and have reduced locomotor activity counts. Reserpine-induced akinesia is assessed by measuring the effect of compounds on locomotor activity approximately 18-24 hours after a single dose of 1 mg/kg reserpine i.p. The equipment used is the same as that used for basal locomotor activity (above).
(§2) Mice are randomly assigned to treatment groups. Each mouse is placed individually into one of the locomotor activity boxes. Distance moved (cm) is recorded per 5 minutes for each mouse. Basal and reserpine-induced exploratory behavior is assessed for the following 30 minutes. After 30 minutes recording stops and mice are dosed p.o. with the test compound in a volume of 10 ml/kg. Once all mice have been dosed locomotor activity recording is started for a further 120 minutes to assess the effect of treatment on akinesia. Data is transferred from the software/computers to spreadsheets for further analysis. Statistical analysis is carried out using Statistica 8.0. One way ANOVA on TOTAL distance moved, with Treatment group as the between factor, is calculated. If a significant Treatment effect (p≦0.05) is observed then post-hoc analysis is performed, either Fishers' LSD or Dunnetts' test.

Series [2] has as its system C57/black 6J male mice. The experiment in a line: Basal (habituated) locomotor activity. The class given is in vivo. The method, then: as §1
Locomotor activity is measured using an automated system to track movement in mice. Mice are placed in chambers and allowed to habituate to the chambers for 30 mins. During this time they show reduced locomotion over time. Following administration of a compound of the invention, animal movement is restored to pre-habituation levels.
More specifically, locomotor activity boxes [40×40×40 cm clear arenas] are situated in groups of 4 placed on infrared tables and testing is performed in the dark. Locomotor activity is recorded and measured using infrared video tracking. Locomotor activity is recorded between time of 8:30 and 17:00 hours. In some instances locomotor activity is measured using open fields which use infrared beam breaks as a measure of movement.
as §2, with “mouse. Exploratory” for “mouse. Basal and reserpine-induced exploratory”, “compound or vehicle” for “compound”, “been dosed,” for “been dosed”, “on habituated locomotor activity.” for “on akinesia.”

Series [3] has as its system male Fischer F-344 Sasco rats. Kind of series: Attenuation of stress-induced hyperthermia in rats. As to conditions: oral, 60-min pretreatment. The format is in vivo. As to the method: Stress-induced hyperthermia is attenuated by clinical anxiolytics and is widely used preclinically to predict anxiolytic efficacy of compounds.
In separate studies, male Fischer F-344 Sasco rats are dosed orally with 0.3, 1, 3, or 10 mg/kg of test compound in a vehicle consisting of 1% carboxymethylcellulose, 0.25% polysorbate 80, 0.05% antifoam (dose volume=1 ml/kg). The mGluR5 receptor antagonist MTEP (3-[(2-methyl-1,3-thiazol-4-yl)ethynyl]pyridine) (10 mg/kg, PO) is used as a quality control. Following a 60-min pretreatment period, core baseline body temperature is measured (T1, in degrees C.) and then ten minutes later a second body temperature measurement is recorded (T2). The change in body temperature (T2 minus T1) is defined as the stress-induced hyperthermic response. The efficacious dose is the dose at which a compound produces a 35% reduction in stress-induced hyperthermia, relative to the vehicle response, and is defined as the T35 dose.

Series [4] deals with T1, human mGluR5 (Homo sapiens, UniProt P41594).
T1 construct: expressed in transfected cells; host or cells: AV-12 cells containing the rat EAAT1 glutamate transporter
The experiment in a line: Human mGluR5 in vitro functional assay (FLIPR calcium, antagonism of glutamate EC90 response). The format is cell-based. As to conditions: AV-12 cells expressing recombinant human mGlu5a, relative IC50. From the text: (§3) The activation of G-protein coupled receptors (GPCRs) that are coupled to Gq proteins results in a change in intracellular calcium concentration. This functional response can be measured in a kinetic assay using calcium-sensitive dyes and a fluorescent imaging plate reader using a standard technique known as FLIPR (MDS Analytical Technologies, Sunnyvale, Calif.).
(§4) Stable cell line preparation and assay techniques are adapted from Kingston, A. E., et. al. (1995) Neuropharmacology 34: 887-894. […]
(§5) For the functional assays, cells are seeded in growth medium lacking selection antibiotics at a density of 65K per well into 96-well, black/clear bottom, poly-D-lysine coated microplates and incubated for 18-20 hours prior to the experiment. […] The antagonist effects of compounds are quantified in the FLIPR instrument in 10-point dose curves by comparing the peak fluorescent responses to the agonist glutamate in the presence and absence of compound. Specifically, the compound effect is measured as maximal minus minimal peak heights in relative fluorescent units corrected for basal fluorescence as measured in the absence of glutamate. All data are calculated as relative IC50 values using a four-parameter logistic curve fitting program (Activity Base® v5.3.1.22).

The target of series [5] is T2, human mGluR1 (Homo sapiens, UniProt Q13255).
T2 construct: expressed in transfected cells; host or cells: AV-12 cells containing the rat EAAT1 glutamate transporter
Kind of series: Human mGluR1 in vitro functional assay (FLIPR calcium, antagonism of glutamate EC90 response). The format is cell-based. As to conditions: AV-12 cells expressing recombinant human mGlu1α, relative IC50.
Description: as §3, §4, §5

Series [6] has as its system Male, NIH-Swiss mice. The experiment in a line: Mouse forced-swim. The class given is in vivo. As to the method:
Male, NIH-Swiss mice (20-25 g, Harlan Sprague-Dawley, Indianapolis, Ind.) are used in a method modified from that of Porsolt R D, Le Pichon M, Jalfre M Depression: a new animal model sensitive to antidepressant treatments. Nature. 1977 Apr. 21; 266(5604):730-2. Mice are placed in clear plastic cylinders (diameter 10 cm; height: 25 cm) filled to 6 cm with 22-25° C. water for six min. The duration of immobility is recorded during the last 4 min of a six-minute trial. A mouse is regarded as immobile when floating motionless or making only those movements necessary to keep its head above the water. Data are analyzed by post-hoc Dunnett's test with alpha level set at 0.05. The amount of time spent immobile is measured. Means+S.E.M. are subjected to ANOVA followed by Dunnett's test with p<0.05 set as the error rate for statistical significance. ED60 values are extrapolated from the linear portion of the dose-effect curve and represent the dose predicted to decrease basal immobility (100% at 0 mg/kg compound) by 60%. The maximal decrease in immobility time is calculated using the largest decrease in immobility produced at any dose of a compound with this formula: (100-immobility with compound/immobility under vehicle control) %.

Setting [7] is: reserpine 1 mg/kg i.p. + 3 mg/kg p.o. test compound.
Setting [8] is: reserpine 1 mg/kg i.p. + 10 mg/kg p.o. test compound.

T2 sequence (Q13255 19-1194): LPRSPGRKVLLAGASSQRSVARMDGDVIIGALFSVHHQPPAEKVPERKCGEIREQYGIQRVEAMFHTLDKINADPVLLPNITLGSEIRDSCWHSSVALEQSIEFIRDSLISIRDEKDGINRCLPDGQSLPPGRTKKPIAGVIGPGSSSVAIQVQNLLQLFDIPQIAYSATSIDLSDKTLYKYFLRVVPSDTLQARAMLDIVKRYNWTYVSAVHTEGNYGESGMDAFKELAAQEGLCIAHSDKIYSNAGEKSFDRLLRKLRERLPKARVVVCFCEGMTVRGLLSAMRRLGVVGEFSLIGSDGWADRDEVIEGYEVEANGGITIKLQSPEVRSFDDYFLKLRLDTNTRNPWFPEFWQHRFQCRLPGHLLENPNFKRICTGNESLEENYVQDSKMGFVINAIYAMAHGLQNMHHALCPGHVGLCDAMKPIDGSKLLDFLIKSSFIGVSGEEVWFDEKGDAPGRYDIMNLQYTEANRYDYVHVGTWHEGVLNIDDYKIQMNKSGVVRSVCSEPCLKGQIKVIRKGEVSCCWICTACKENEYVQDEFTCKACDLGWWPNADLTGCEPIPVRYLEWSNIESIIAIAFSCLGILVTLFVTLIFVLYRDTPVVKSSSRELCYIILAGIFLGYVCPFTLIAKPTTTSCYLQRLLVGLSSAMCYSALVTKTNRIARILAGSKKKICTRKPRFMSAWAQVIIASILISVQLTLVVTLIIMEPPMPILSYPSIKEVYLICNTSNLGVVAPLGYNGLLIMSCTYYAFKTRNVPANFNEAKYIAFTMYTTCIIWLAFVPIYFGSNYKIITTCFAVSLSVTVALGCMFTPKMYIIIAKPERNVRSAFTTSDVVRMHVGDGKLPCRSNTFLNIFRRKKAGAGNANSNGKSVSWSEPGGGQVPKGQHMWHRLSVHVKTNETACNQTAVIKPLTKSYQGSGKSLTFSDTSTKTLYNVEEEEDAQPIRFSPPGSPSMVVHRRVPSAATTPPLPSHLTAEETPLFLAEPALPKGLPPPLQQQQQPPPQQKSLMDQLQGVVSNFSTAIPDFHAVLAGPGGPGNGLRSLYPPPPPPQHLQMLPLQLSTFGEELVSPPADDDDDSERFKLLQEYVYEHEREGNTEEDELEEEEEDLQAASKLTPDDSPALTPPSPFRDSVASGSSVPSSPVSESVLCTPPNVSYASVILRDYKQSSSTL
T1 sequence (P41594 21-1180 isoform P41594-2 limits assumed): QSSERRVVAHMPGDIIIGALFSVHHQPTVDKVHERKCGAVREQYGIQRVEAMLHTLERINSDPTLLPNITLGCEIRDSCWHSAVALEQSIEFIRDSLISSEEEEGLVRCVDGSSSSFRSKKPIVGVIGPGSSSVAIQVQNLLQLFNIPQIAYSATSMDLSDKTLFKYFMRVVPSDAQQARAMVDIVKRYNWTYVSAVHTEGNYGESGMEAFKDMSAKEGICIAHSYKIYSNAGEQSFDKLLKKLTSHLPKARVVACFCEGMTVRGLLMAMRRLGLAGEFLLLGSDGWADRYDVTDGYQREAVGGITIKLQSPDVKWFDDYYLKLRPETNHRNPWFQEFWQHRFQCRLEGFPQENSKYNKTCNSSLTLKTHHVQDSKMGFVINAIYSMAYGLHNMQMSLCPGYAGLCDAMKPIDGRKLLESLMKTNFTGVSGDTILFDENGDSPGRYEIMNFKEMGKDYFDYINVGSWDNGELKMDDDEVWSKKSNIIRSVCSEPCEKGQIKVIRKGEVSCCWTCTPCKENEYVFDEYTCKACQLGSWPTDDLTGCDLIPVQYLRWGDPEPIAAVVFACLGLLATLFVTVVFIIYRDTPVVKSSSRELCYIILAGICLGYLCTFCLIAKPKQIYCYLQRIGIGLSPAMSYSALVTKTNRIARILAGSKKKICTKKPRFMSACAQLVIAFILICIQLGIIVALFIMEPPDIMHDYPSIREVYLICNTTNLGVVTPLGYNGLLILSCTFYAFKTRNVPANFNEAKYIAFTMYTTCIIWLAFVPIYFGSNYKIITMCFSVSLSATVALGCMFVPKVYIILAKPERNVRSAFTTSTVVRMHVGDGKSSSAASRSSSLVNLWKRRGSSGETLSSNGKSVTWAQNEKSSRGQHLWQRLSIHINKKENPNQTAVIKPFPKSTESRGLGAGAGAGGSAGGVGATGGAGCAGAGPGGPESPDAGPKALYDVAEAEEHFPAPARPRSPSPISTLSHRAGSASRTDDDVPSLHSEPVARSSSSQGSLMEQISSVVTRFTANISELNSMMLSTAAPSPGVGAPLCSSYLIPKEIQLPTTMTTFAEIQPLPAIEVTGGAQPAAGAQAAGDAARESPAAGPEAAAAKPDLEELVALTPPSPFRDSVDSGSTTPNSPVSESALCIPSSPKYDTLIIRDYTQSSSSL

For orientation: melting point means the temperature of the solid-liquid transition. What is called IC50 is the concentration that gives 50% inhibition. Compound `CCOC(=O)N1CCN(c2cn(C)c3nc(OCc4ccccn4)ccc23)C(=O)C1` [Example 1, ethyl 4-[1-methyl-6-(pyridin-2-ylmethoxy)-1H-pyrrolo[2,3-b]pyridin-3-yl]-3-oxopiperazine-1-carboxylate] yielded a melting point of 143.42 °C. Also, the “Reversal of Reserpine-Induced Akinesia (mean distance moved (cm) in 120 min)” value (from here on “Reversal of Reserpine-Induced Akinesia”) in series [1] (reserpine 1 mg/kg i.p. + 1 mg/kg p.o. test compound) is reported as 15392 ++ cm. Also, in series [1] (setting [7]), the “Reversal of Reserpine-Induced Akinesia” value is 23611 ***+++ cm. Besides, the “Reversal of Reserpine-Induced Akinesia” value in series [1] (reserpine 1 mg/kg i.p. + 30 mg/kg p.o. test compound) is recorded as 32607 ***+++ cm. Further, the “Basal Locomotor Activity (mean distance moved (cm) in 120 min)” value (“Basal Locomotor Activity” for short) in series [2] (1 mg/kg p.o.) is listed as 12147 ** cm. The “Basal Locomotor Activity” value in series [2] (3 mg/kg p.o.) is 15980 *** cm. For the same compound, the “Basal Locomotor Activity” value in series [2] (10 mg/kg p.o.) is on record as 25109 *** cm. The “T35 dose (dose producing a 35% reduction in stress-induced hyperthermia relative to vehicle)” value in series [3] came to 0.55 mg/kg. In addition, the IC50 in series [4] was 184 nM. Further, the IC50 in series [5] was > 12500 nM. Further, in series [6] (extrapolated from linear portion of dose-effect curve), the “ED60 dose, reduction in forced swim immobility” value was 8.6 mg/kg. Besides, the “maximal decrease in immobility” value in series [6] (largest decrease at any dose relative to vehicle control) turned out to be 50.6%.
Take `CCCOC(=O)N1CCN(c2cn(C)c3nc(OCc4ccccn4)ccc23)C(=O)C1` [Example 3, Propyl 4-[1-methyl-6-(pyridin-2-ylmethoxy)-1H-pyrrolo[2,3-b]pyridin-3-yl]-3-oxopiperazine-1-carboxylate]: the “Basal Locomotor Activity” value in series [2] (3 mg/kg p.o.) was 28458.8 *** cm; in series [2] (10 mg/kg p.o.) it was 39857.5 *** cm. Further, in series [3], the “T35 dose (dose producing a 35% reduction in stress-induced hyperthermia relative to vehicle)” value is 0.93 mg/kg.
As to `CC(C)OC(=O)N1CCN(c2cn(C)c3nc(OCc4ccccn4)ccc23)C(=O)C1` [Example 4, 1-Methylethyl 4-[1-methyl-6-(pyridin-2-ylmethoxy)-1H-pyrrolo[2,3-b]pyridin-3-yl]-3-oxopiperazine-1-carboxylate], the “Reversal of Reserpine-Induced Akinesia” value in series [1] (setting [7]) was 16474.1 + cm; in series [1] (setting [8]), 23394.4± **+++ cm. The “Basal Locomotor Activity” value in series [2] (3 mg/kg p.o.) is given as 30715.2 ** cm; in series [2] (10 mg/kg p.o.), 39935.6 *** cm.
Consider `CCn1cc(N2CCN(C(=O)OC)CC2=O)c2ccc(OCc3ccccn3)nc21` [Example 23, methyl 4-[1-ethyl-6-(pyridin-2-ylmethoxy)-1H-pyrrolo[2,3-b]pyridin-3-yl]-3-oxopiperazine-1-carboxylate], for which the “Basal Locomotor Activity” value was 21628.2 ** cm in series [2] (3 mg/kg p.o.) and 31070.8 *** cm in series [2] (10 mg/kg p.o.).
`CCOC(=O)N1CCN(c2cn(C)c3nc(OCc4ccccn4)c(Cl)cc23)C(=O)C1` [Example 27, Ethyl 4-[5-chloro-1-methyl-6-(pyridin-2-ylmethoxy)-1H-pyrrolo[2,3-b]pyridin-3-yl]-3-oxopiperazine-1-carboxylate]: the “Reversal of Reserpine-Induced Akinesia” value is recorded as 27053.7 ***+++ cm in series [1] (setting [7]) and 23432.5 **+++ cm in series [1] (setting [8]). Also, the “Basal Locomotor Activity” value in series [2] (3 mg/kg p.o.) is on record as 35290.1 *** cm; in series [2] (10 mg/kg p.o.) it was 36889.1 *** cm.
In the same order, the values of `CCOC(=O)N1CCN(c2cn(C)c3nc(OCc4ccccn4)c(C)cc23)C(=O)C1` [Example 28, Ethyl 4-[1,5-dimethyl-6-(pyridin-2-ylmethoxy)-1H-pyrrolo[2,3-b]pyridin-3-yl]-3-oxopiperazine-1-carboxylate] are 7848.9 cm, 14087.6 **+++ cm, 25074.1 ** cm and 32866.2 *** cm.
Consider `COC(=O)[C@H]1[C@H]2C[C@@H]3c4[nH]c5cc(OC)ccc5c4CCN3C[C@H]2C[C@@H](OC(=O)c2cc(OC)c(OC)c(OC)c2)[C@@H]1OC` [reserpine, Reserpine, reference compound], for which the “mean distance moved (cm) in 120 min, reserpine alone” value in series [1] (18-24 hours after single dose of 1 mg/kg reserpine i.p., no test compound, 1 mg/kg) is 4118.6 cm and 7331.1 cm and 4597.2 cm and 6150 cm.
